Assay results: PMC11093748, “De novo identification of CD4^+ T cell epitopes” (Nature Methods, 2024)

Experiments:
[1] = tested on: TCR3; assay: I-Ag7 SABR-II HIP library screen, enrichment score; format: cell-based, mouse
Description: (§1) Given the predominance of HIP-reactive TCRs, we hypothesized that there may be other TCRs that respond to HIPs that were not encoded in our initial library configuration. While the initial I-Ag7 SABR-II library consisted of a number of HIPs, HIP formation is thought to be more widespread in pancreatic β-cells[52],[70]. Therefore, we sought to construct a defined, HIP-focused library to probe whether there were any undiscovered HIP-reactive TCRs that could be recognized by the clonally expanded TCR in our dataset. To test this, we utilized a published proteomic dataset, which predicted that several proteins that were highly expressed in secretory granules of β-cells may contribute to HIP formation. Using their predictions, we built a theoretical HIP library, in which all possible ‘left’ halves of the insulin C chain derived from natural cleavage products were fused to ‘right’ halves derived from secretory granule proteins (Fig. 5a). This 2,561-epitope library (12–25 amino acids per epitope) consisted of only HIPs and a small number of positive control epitopes (Supplementary Table 5). We screened the top three clonally expanded TCRs (TCR1, TCR2 and TCR3) against this library, as these TCRs had not been de-convoluted using the original library. […] To confirm that the HIP itself was important for the cognate interaction, we cloned single 14-mer epitopes into SABR-IIs consisting of seven amino acids of the left portion of the HIP and seven amino acids of the right portion of the HIP. In this way, no nine amino acids from either peptide sequence alone could occupy the binding pocket of I-Ag7, ensuring that TCR reactivity spanned the HIP junction. […] Of note, in all the epitopes that were tested, the ‘left’ half derived from insulin C was conserved, whereas the ‘right’ halves were derived from several other proteins (Fig. 5d). […] Moreover, the promiscuous binding of TCR3 to HIPs corroborates evidence from other NOD mouse-derived TCRs reacting to multiple HIPs[72].
(§2) To generate the I-Ag7 restricted SABR library, we combined all Immune Epitope Database epitopes with a published immunopeptidome generated by Wan et al.[51]. Sequences were filtered remove all post-translational modifications except deamidation and HIPs and trimmed between 9–25 amino acid lengths. For the insulin C HIP and HLA-DQ8 library, non-contiguous epitopes from Wiles et al.[66] as well as all Immune Epitope Database epitopes were combined to generate the epitope list. Epitope sequences were back-translated using the backtranslate_fast.py script.
For SABR library screens, 3 × 10^6 NFAT–GFP Jurkat cells expressing the SABR library were labeled with CellTrace Violet (BioLegend) according to the manufacturer’s protocol before incubation with 3 × 10^6 Jurkat cells expressing the TCR of interest. These mixtures were incubated in a six-well plate for 16–20 h. Cells were stained with anti-CD69-APC-Cy7 where indicated (BioLegend) and the top 1–2% of GFP^+CD69^+ cells were sorted for genomic DNA extraction, indexing and sequencing (see below). Multiplexed assays were scaled on a per-TCR basis (for example 3 × 10^6 for each of three TCRs against 9 × 10^6 library cells). For single SABR assays, unless otherwise defined, 5 × 10^5 SABR expressing NFAT–GFP Jurkat cells (or 5KC cells) were labeled with CellTrace Violet (BioLegend) according to the manufacturer’s protocol before incubation with 5 × 10^5 TCR-expressing Jurkat cells (or 5KC cells) in a round-bottom 96-well plate for 16–20 h. Cells were stained with anti-CD69-APC-Cy7 when indicated and acquired on the Attune NxT flow cytometer (Thermo Fisher Scientific). All flow analysis was performed using FlowJo (BD). For Daudi cell co-culture, 1 × 10^6 Jurkat cells expressing the TCR of interest were incubated with 1 × 10^6 Daudi cells expressing a SABR of interest for 3 days. On day 3, cells were labeled with anti-RT1B-PE and anti-Fas-APC-Cy7 before being acquired on the Attune NxT flow cytometer. […]

[2] = tested on: GSE.20D11 TCR; assay: HLA-DQ8 SABR-II (+ HLA-A2.1 SABR) library screen, enrichment score; format: cell-based, human
Description: To test whether HLA-DQ8 SABR-II could be used for antigen discovery, we curated a list of insulin B, insulin C and HIP epitopes published by Wiles et al.[58] and cloned them into the DQ8 SABR-II backbone using the same pooled cloning strategy as the I-Ag7 SABR-II library (Supplementary Table 2). Furthermore, we combined SABR-I (the HLA-A*0201 library reported in our previous work[27]) and SABR-II libraries at a cellular level and screened against the GSE.20D11 TCR.
as §2
(§3) For SABR library screens, 3 × 10^6 NFAT–GFP Jurkat cells expressing the SABR library were labeled with CellTrace Violet (BioLegend) according to the manufacturer’s protocol before incubation with 3 × 10^6 Jurkat cells expressing the TCR of interest. These mixtures were incubated in a six-well plate for 16–20 h. Cells were stained with anti-CD69-APC-Cy7 where indicated (BioLegend) and the top 1–2% of GFP^+CD69^+ cells were sorted for genomic DNA extraction, indexing and sequencing (see below). Multiplexed assays were scaled on a per-TCR basis (for example 3 × 10^6 for each of three TCRs against 9 × 10^6 library cells). For single SABR assays, unless otherwise defined, 5 × 10^5 SABR expressing NFAT–GFP Jurkat cells (or 5KC cells) were labeled with CellTrace Violet (BioLegend) according to the manufacturer’s protocol before incubation with 5 × 10^5 TCR-expressing Jurkat cells (or 5KC cells) in a round-bottom 96-well plate for 16–20 h. Cells were stained with anti-CD69-APC-Cy7 when indicated and acquired on the Attune NxT flow cytometer (Thermo Fisher Scientific). All flow analysis was performed using FlowJo (BD). For Daudi cell co-culture, 1 × 10^6 Jurkat cells expressing the TCR of interest were incubated with 1 × 10^6 Daudi cells expressing a SABR of interest for 3 days. On day 3, cells were labeled with anti-RT1B-PE and anti-Fas-APC-Cy7 before being acquired on the Attune NxT flow cytometer.
Genomic DNA was extracted from sorted cells immediately after sorting, using the PureLink genomic DNA extraction kit (Life Technologies). The integrated SABR vectors were amplified with KOD polymerase (Millipore) and two rounds of amplification. In the first round, IDT-UD-SABR-C2-F and IDT-UD-SABR-C2-R primers were used to amplify the epitope. In the second round, UDI0001-R and UDI0001-F primers (representative of index 1) were used to add Illumina unique dual indexes (UDIs) to the amplicons. A different UDI was used for each sample. The reactions were pooled and purified with the NucleoSpin gel and PCR purification kit (Takara). The purified PCR product was checked before sequencing using 2% agarose gel and subjected to sequencing on a HiSeq4000 (Fulgent Genetics). Unaligned reads generated by the sequencer were stored in FASTQ files. FASTQ files were concatenated to generate one file for read1 and read2 each. The sequences were demultiplexed into individual indexes using demultiplex_dual.py. Epitopes were extracted and scored using epitope_extract_fastq_v1.1.py and merge_counts_split_v2.1.py. The ES was calculated using Microsoft Excel (Microsoft) workbooks.

[3] = tested on: Jurkat cells, No TCR; assay: Single SABR-II co-incubation, background without TCR; format: cell-based, human; conditions: No TCR, Fig 5C
Description: (§4) We performed systematic screening of the cloned TCRs against the I-Ag7 SABR-II library. Several TCRs along with a positive control (such as BDC2.5 or 4-8Ins) were screened individually against the library for each sort (Extended Data Fig. 6a and Supplementary Table 4). High- and low-confidence ES zones for each screened TCR were defined by the ES values of the control TCR’s cognate epitopes. For all putative cognate epitopes, single SABR-IIs were constructed, expressed in NFAT–GFP Jurkat cells and used for co-incubation with the corresponding TCRs. Co-incubation assays that yielded a GFP signal higher than that obtained in assays with no TCR were determined to be positive and the epitopes deemed true cognate ligands (Extended Data Fig. 6b,c). Using this strategy, we obtained epitopes in the high-confidence zone for eight TCRs (Fig. 3a and Extended Data Fig. 6b,d). Among numerous altered peptide ligands (APLs), these TCRs recognized the physiological InsC-ChgA HIP ([…] and analogs, recognized by TCR5, TCR6B, TCR9 and TCR34), InsC-Iapp HIP ([…] and analogs, recognized by TCR4 and TCR15) and InsB9:23 ([…] and analogs recognized by TCR24 and TCR37). These cognate high-confidence hits were validated using single SABR-II co-incubation assays (Fig. 3b and Extended Data Fig. 7a). Further validations using in vitro mouse interleukin-2 (mIL-2) secretion by TCR-expressing 5KC reporter cells[13] or CD25 expression by TCR-expressing splenic CD4^+ T cells upon stimulation with the cognate epitope were performed (Extended Data Fig. 7b,c). Furthermore, low-confidence hits were called for ten TCRs and tested in co-incubation assays.
as §3

[4] = tested on: TCR4; assay: Single SABR-II co-incubation, NFAT-GFP Jurkat; format: cell-based, mouse; conditions: TCR 4, Fig 5C
Description: as §4, §3

[5] = tested on: TCR3; assay: Single SABR-II co-incubation, NFAT-GFP Jurkat; format: cell-based, mouse; conditions: TCR 3, Fig 5C
Description: as §1, §3

[6] = HIP library, TCR 3, TCR_Mean of 3 replicates minus PREDICTED_TCR (slope 0.926662, intercept 2.88051e-5)
[7] = I-Ag7 HIP library, one biological experiment
[8] = ES = TCRObserved - TCRPredicted, TCRPredicted = LIBObserved x SLOPE + INTERCEPT, SLOPE 1.10224, INTERCEPT -1.65707e-5
[9] = HLA-A2.1 and HLA-DQ8 SABR libraries screened simultaneously, reads mapped to DQ8 library, one biological experiment

DPQVEQLELGGSKDSDKGQQDGFE
Enrichment score [1, 6]: 0.001805

EVEDEVEDPQVAQLELGGGPGAGD [theoretical HIP of the I-Ag7 HIP library]
Enrichment score [1, 7]: 2.439e-5

AASKERSGVSL
Enrichment score [2, 8]: 3.541e-5
Enrichment score [2, 9]: 3.541e-5

AAPSVFIFPPSDEQLK
Enrichment score [2, 8]: -0.0003017
Enrichment score [2, 9]: -0.0003017

CDGERPTLAFLQDVM
Enrichment score [2, 8]: -0.0002437
Enrichment score [2, 9]: -0.0002437

VEDPQVEQLELGSGKEVKGEEKGE
Enrichment score [1, 6]: 0.002292

EDPQVEQLELGGAEDQELESLSAI
Enrichment score [1, 6]: 0.001322

VEQLELGAKQEEKE [14-mer hybrid insulin peptide spanning the fusion junction, TCR3 hit]
%GFP+CD69+ cells of SABR-NFAT-GFP-Jurkat cells ([3]; technical replicate 1): 1.47%
%GFP+CD69+ cells of SABR-NFAT-GFP-Jurkat cells ([3]; technical replicate 2): 1.55%
%GFP+CD69+ cells of SABR-NFAT-GFP-Jurkat cells ([4]; technical replicate 1): 1.47%
%GFP+CD69+ cells of SABR-NFAT-GFP-Jurkat cells ([4]; technical replicate 2): 1.36%
%GFP+CD69+ cells of SABR-NFAT-GFP-Jurkat cells ([5]; technical replicate 1): 80.7%
%GFP+CD69+ cells of SABR-NFAT-GFP-Jurkat cells ([5]; technical replicate 2): 80.6%

EVEDEVEDPQVEQLELGGSPGDLQ [theoretical HIP of the I-Ag7 HIP library]
Enrichment score [1, 7]: 0.0001951

EVEDPQVEQLELNAARDPNRESLD
Enrichment score [1, 6]: 0.002309

EVEDFVKQHLCGSHLVEALYLVCG [theoretical HIP of the I-Ag7 HIP library]
Enrichment score [1, 7]: -0.0001794

EQLELGGHIEDSGE [14-mer hybrid insulin peptide spanning the fusion junction, TCR3 hit]
%GFP+CD69+ cells of SABR-NFAT-GFP-Jurkat cells ([3]; technical replicate 1): 14.1%
%GFP+CD69+ cells of SABR-NFAT-GFP-Jurkat cells ([3]; technical replicate 2): 13.9%
%GFP+CD69+ cells of SABR-NFAT-GFP-Jurkat cells ([4]; technical replicate 1): 13.2%
%GFP+CD69+ cells of SABR-NFAT-GFP-Jurkat cells ([4]; technical replicate 2): 14.3%
%GFP+CD69+ cells of SABR-NFAT-GFP-Jurkat cells ([5]; technical replicate 1): 29.1%
%GFP+CD69+ cells of SABR-NFAT-GFP-Jurkat cells ([5]; technical replicate 2): 28.9%

VEQLELGSGKEVKG [14-mer hybrid insulin peptide spanning the fusion junction, TCR3 hit]
%GFP+CD69+ cells of SABR-NFAT-GFP-Jurkat cells ([3]; technical replicate 1): 3.79%
%GFP+CD69+ cells of SABR-NFAT-GFP-Jurkat cells ([3]; technical replicate 2): 4%
%GFP+CD69+ cells of SABR-NFAT-GFP-Jurkat cells ([4]; technical replicate 1): 4.13%
%GFP+CD69+ cells of SABR-NFAT-GFP-Jurkat cells ([4]; technical replicate 2): 4.17%
%GFP+CD69+ cells of SABR-NFAT-GFP-Jurkat cells ([5]; technical replicate 1): 78.8%
%GFP+CD69+ cells of SABR-NFAT-GFP-Jurkat cells ([5]; technical replicate 2): 77.6%

APKRPPSAF
Enrichment score [2, 8]: 2.7496e-5
Enrichment score [2, 9]: 2.7496e-5

QLELGGSKDSDKGQ [14-mer hybrid insulin peptide spanning the fusion junction, TCR3 hit]
%GFP+CD69+ cells of SABR-NFAT-GFP-Jurkat cells ([3]; technical replicate 1): 9.03%
%GFP+CD69+ cells of SABR-NFAT-GFP-Jurkat cells ([3]; technical replicate 2): 10.7%
%GFP+CD69+ cells of SABR-NFAT-GFP-Jurkat cells ([4]; technical replicate 1): 9.32%
%GFP+CD69+ cells of SABR-NFAT-GFP-Jurkat cells ([4]; technical replicate 2): 9.4%
%GFP+CD69+ cells of SABR-NFAT-GFP-Jurkat cells ([5]; technical replicate 1): 10.5%
%GFP+CD69+ cells of SABR-NFAT-GFP-Jurkat cells ([5]; technical replicate 2): 9.28%

EVEDGIVDQCCTSICSLYQLENYC [theoretical HIP of the I-Ag7 HIP library]
Enrichment score [1, 7]: 1.206e-5

EVEDFVKQHLCGPHLVEALYLVCG [theoretical HIP of the I-Ag7 HIP library]
Enrichment score [1, 7]: -1.381e-6

EQLELGGKADEFPD [14-mer hybrid insulin peptide spanning the fusion junction, TCR3 hit]
%GFP+CD69+ cells of SABR-NFAT-GFP-Jurkat cells ([3]; technical replicate 1): 11.2%
%GFP+CD69+ cells of SABR-NFAT-GFP-Jurkat cells ([3]; technical replicate 2): 12.4%
%GFP+CD69+ cells of SABR-NFAT-GFP-Jurkat cells ([4]; technical replicate 1): 11.4%
%GFP+CD69+ cells of SABR-NFAT-GFP-Jurkat cells ([4]; technical replicate 2): 11.5%
%GFP+CD69+ cells of SABR-NFAT-GFP-Jurkat cells ([5]; technical replicate 1): 38.6%
%GFP+CD69+ cells of SABR-NFAT-GFP-Jurkat cells ([5]; technical replicate 2): 37.2%

EDPQVEQLELGGKADEFPDFYDSE
Enrichment score [1, 6]: 0.001943
